Marks after values point to notes of the source that are not given here.
Experiments:
[1] = Clinical outcomes after kidney transplantation (hypotension, DGF, BPAR, post-transplant diabetes, tremor); assay type: in vivo, human
Procedure: For calculation of AUC/D and C0/D, values of AUC and C0 were dose-adjusted by dividing the observed values by the dose recorded on the day of blood collection. Early-morning blood pressures were measured on the same day of blood collection for pharmacokinetic analysis by a ward nurse as part of a routine examination, during rest in a seated position with a calibrated and well-maintained automatic sphygmomanometer. Delayed graft function (DGF) was defined as failure of the kidney graft to function immediately, with the need for dialysis in the first 7 days post-KT. Episode of biopsy-proven acute rejection (BPAR) during 3 months post-KT was diagnosed based on histologic findings in indication kidney graft biopsy according to Banff 2015 criteria.

[2] = Proportions of kidney transplant recipients with subtherapeutic or supratherapeutic tacrolimus trough concentration; assay type: in vivo, human
Procedure: All participants received oral, immediate-release tacrolimus (Prograf®; Astellas, Kerry, Ireland). According to Siriraj Hospital protocol, the initial dose (0.05 mg/kg every 12 h) of tacrolimus was started 2 days before KT (day − 2) and subsequently adjusted after KT based on efficacy and toxicity and to maintain morning trough concentrations of 7 to 10 ng/mL in standard risk patients and 10 to 12 ng/mL in high-risk patients during the first week after transplantation. Participants also received either mycophenolate mofetil (Cellcept®; F Hoffmann-La Roche Ltd, Basel, Switzerland or Immucept®; Intas Pharmaceuticals Ltd., Gujarat, India) or mycophenolate sodium (Myfortic®; Novartis Pharma Stein, Switzerland for Novartis AG, Basel, Switzerland) at the dosage equivalent to 2 g/day of mycophenolate mofetil. A tapered corticosteroid regimen was administered consisting of an intravenous bolus of 500 mg of methylprednisolone (Solu-medrol®; Novartis Pharma Stein, Switzerland for Novartis AG, Basel, Switzerland) on day 0, 250 mg on day 1, 125 mg on day 2 followed by 40 mg/day of prednisolone on day 4 after KT. The subsequent prednisolone doses were gradually tapered thereafter. Induction therapy with basiliximab (Simulect®; Novartis Pharma AG, Basel, Switzerland) was allowed.
On day 7 post-KT, after the tacrolimus dosage was stable for at least 48 h, venous blood samples (5 mL) were collected at pre-dose and 1, 2, 4, 6, 8 and 12 h after the morning dose of tacrolimus. Samples were collected in EDTA tubes and stored at 4 degrees Celsius until analysis. Whole blood tacrolimus concentrations were determined within the same day of blood collection by using a chemiluminescent microparticle immunoassay method with […] system® i2000 (Abbott, Abbott Diagnostic, USA). The method was linear in the concentration range up to 30 ng/mL, the limits of quantification were 0.8 ng/mL, and the coefficient of variation of within run precision and between run precision were less than 10%. Mean recovery was 100 ± 10% according to the manufacturer’s information.
The primary outcome measure was AUC/D at day 7 post-KT. […]

[3] = day 1 post-transplantation, CYP3A5 expressers, diltiazem (n = 11)
[4] = day 1 post-transplantation, CYP3A5 expressers, placebo (n = 12)
[5] = day 1 post-transplantation, CYP3A5 non-expressers, diltiazem (n = 9)
[6] = day 1 post-transplantation, CYP3A5 non-expressers, placebo (n = 8)
[7] = day 1 post-transplantation, total (n = 40)
[8] = day 3 post-transplantation, CYP3A5 expressers, diltiazem (n = 11)
[9] = day 3 post-transplantation, CYP3A5 expressers, placebo (n = 12)
[10] = day 3 post-transplantation, CYP3A5 non-expressers, diltiazem (n = 9)
[11] = day 3 post-transplantation, CYP3A5 non-expressers, placebo (n = 8)
[12] = day 3 post-transplantation, total (n = 40)
[13] = day 5 post-transplantation, CYP3A5 expressers, diltiazem (n = 11)
[14] = day 5 post-transplantation, CYP3A5 expressers, placebo (n = 12)
[15] = day 5 post-transplantation, CYP3A5 non-expressers, diltiazem (n = 9)
[16] = day 5 post-transplantation, CYP3A5 non-expressers, placebo (n = 8)
[17] = day 5 post-transplantation, total (n = 40)
[18] = day 7 post-transplantation, CYP3A5 expressers, diltiazem (n = 11)
[19] = day 7 post-transplantation, CYP3A5 expressers, placebo (n = 12)
[20] = day 7 post-transplantation, CYP3A5 non-expressers, diltiazem (n = 9)
[21] = day 7 post-transplantation, CYP3A5 non-expressers, placebo (n = 8)
[22] = day 7 post-transplantation, total (n = 40)

C=CC[C@@H]1/C=C(\C)C[C@H](C)C[C@H](OC)[C@H]2O[C@@](O)(C(=O)C(=O)N3CCCC[C@H]3C(=O)O[C@H](/C(C)=C/[C@@H]3CC[C@@H](O)[C@H](OC)C3)[C@H](C)[C@@H](O)CC1=O)[C@H](C)C[C@@H]2OC [Tacrolimus]
Tremor ([1]; during 3 months after transplantation, 40 KTRs): No study patients reported tremor | Biopsy-proven acute rejection (BPAR) ([1]; during 3 months after transplantation, 40 KTRs on tacrolimus-based regimen, one in EXdtz, one in NEplb): 5% | Post-transplant diabetes mellitus ([1]; during 3 months after transplantation, 40 KTRs, one in EXplb, one in EXdtz): 5% | DGF, suspected rejection, or BPAR ([1]; first week post-KT, 40 KTRs on tacrolimus-based regimen): None | Trough concentration higher than 15 ng/mL [2, 3]: 1 (9.1) n (%) | Trough concentration lower than 5 ng/mL [2, 3]: 0 (0) n (%) | Trough concentration lower than the target range [2, 3]: 1 (9.1) n (%) | Trough concentration higher than 15 ng/mL [2, 4]: 0 (0) n (%) | Trough concentration lower than 5 ng/mL [2, 4]: 4 (33.3) n (%) | Trough concentration lower than the target range [2, 4]: 7 (58.3) n (%) | Trough concentration higher than 15 ng/mL [2, 5]: 3 (33.3) n (%) | Trough concentration lower than 5 ng/mL [2, 5]: 1 (11.1) n (%) | Trough concentration lower than the target range [2, 5]: 2 (22.2) n (%) | Trough concentration higher than 15 ng/mL [2, 6]: 3 (37.5) n (%) | Trough concentration lower than 5 ng/mL [2, 6]: 1 (12.5) n (%) | Trough concentration lower than the target range [2, 6]: 2 (25.0) n (%) | Trough concentration higher than 15 ng/mL [2, 7]: 7 (17.5) n (%) | Trough concentration lower than 5 ng/mL [2, 7]: 6 (15.0) n (%) | Trough concentration lower than the target range [2, 7]: 12 (30.0) n (%) | Trough concentration lower than 5 ng/mL ([2]; day 3 post-transplantation, CYP3A5 expressers, diltiazem (EXdtz, n = 11)): 1 (9.1) n (%) | Trough concentration lower than 5 ng/mL ([2]; day 3 post-transplantation, CYP3A5 expressers, diltiazem (EXdtz, n = 11), listed as tacrolimus): one | Trough concentration higher than 15 ng/mL [2, 8]: 0 (0) n (%) | Trough concentration lower than the target range [2, 8]: 2 (18.2)^b n (%) | Trough concentration lower than 5 ng/mL ([2]; day 3 post-transplantation, CYP3A5 expressers, placebo (EXplb, n = 12)): 4 (33.3) n (%) | Trough concentration lower than 5 ng/mL ([2]; day 3 post-transplantation, CYP3A5 expressers, placebo (EXplb, n = 12), listed as tacrolimus): four | Trough concentration higher than 15 ng/mL [2, 9]: 0 (0) n (%) | Trough concentration lower than the target range [2, 9]: 8 (66.7) n (%) | Trough concentration lower than 5 ng/mL ([2]; day 3 post-transplantation, CYP3A5 non-expressers, diltiazem (NEdtz, n = 9)): 0 (0) n (%) | Trough concentration lower than 5 ng/mL ([2]; day 3 post-transplantation, CYP3A5 non-expressers, diltiazem (NEdtz, n = 9), listed as tacrolimus): none | Trough concentration higher than 15 ng/mL [2, 10]: 0 (0) n (%) | Trough concentration lower than the target range [2, 10]: 0 (0)^b n (%) | Trough concentration lower than 5 ng/mL ([2]; day 3 post-transplantation, CYP3A5 non-expressers, placebo (NEplb, n = 8)): 0 (0) n (%) | Trough concentration lower than 5 ng/mL ([2]; day 3 post-transplantation, CYP3A5 non-expressers, placebo (NEplb, n = 8), listed as tacrolimus): none | Trough concentration higher than 15 ng/mL [2, 11]: 1 (12.5) n (%) | Trough concentration lower than the target range [2, 11]: 0 (0)^b n (%) | Trough concentration higher than 15 ng/mL [2, 12]: 1 (2.5) n (%) | Trough concentration lower than 5 ng/mL [2, 12]: 5 (12.5) n (%) | Trough concentration lower than the target range [2, 12]: 10 (25.0) n (%) | Trough concentration higher than 15 ng/mL [2, 13]: 0 (0) n (%) | Trough concentration lower than 5 ng/mL [2, 13]: 1 (9.1) n (%) | Trough concentration lower than the target range [2, 13]: 7 (63.6) n (%) | Trough concentration higher than 15 ng/mL [2, 14]: 0 (0) n (%) | Trough concentration lower than 5 ng/mL [2, 14]: 1 (8.3) n (%) | Trough concentration lower than the target range [2, 14]: 7 (58.3) n (%) | Trough concentration higher than 15 ng/mL [2, 15]: 0 (0) n (%) | Trough concentration lower than 5 ng/mL [2, 15]: 0 (0) n (%) | Trough concentration lower than the target range [2, 15]: 2 (22.2) n (%) | Trough concentration higher than 15 ng/mL [2, 16]: 0 (0) n (%) | Trough concentration lower than 5 ng/mL [2, 16]: 2 (25.0) n (%) | Trough concentration lower than the target range [2, 16]: 2 (25.0) n (%) | Trough concentration higher than 15 ng/mL [2, 17]: 0 (0) n (%) | Trough concentration lower than 5 ng/mL [2, 17]: 4 (10.0) n (%) | Trough concentration lower than the target range [2, 17]: 18 (45.0) n (%) | Trough concentration higher than 15 ng/mL [2, 18]: 0 (0) n (%) | Trough concentration lower than 5 ng/mL [2, 18]: 0 (0) n (%) | Trough concentration lower than the target range [2, 18]: 6 (54.5) n (%) | Trough concentration higher than 15 ng/mL [2, 19]: 0 (0) n (%) | Trough concentration lower than 5 ng/mL [2, 19]: 0 (0) n (%) | Trough concentration lower than the target range [2, 19]: 1 (8.3) n (%) | Trough concentration higher than 15 ng/mL [2, 20]: 0 (0) n (%) | Trough concentration lower than 5 ng/mL [2, 20]: 0 (0) n (%) | Trough concentration lower than the target range [2, 20]: 3 (33.3) n (%) | Trough concentration higher than 15 ng/mL [2, 21]: 0 (0) n (%) | Trough concentration lower than 5 ng/mL [2, 21]: 0 (0) n (%) | Trough concentration lower than the target range [2, 21]: 2 (25.0) n (%) | Trough concentration higher than 15 ng/mL [2, 22]: 0 (0) n (%) | Trough concentration lower than 5 ng/mL [2, 22]: 0 (0) n (%) | Trough concentration lower than the target range [2, 22]: 12 (30.0) n (%)

Reference: article PMC9393165 (Scientific Reports, 2022)
